The results in this text go back to patent US4649215A, “Aliphatic thioethers” (Ciba-Geigy Corporation, priority 1984, dated 1987).

Counter-ions that a name gives are not always drawn.

The subject of one assay is leucotrienes. Nature of the assay: leucotriene-antagonistic activity (test not specified). Conditions: reverse absolute configuration at C-5 and C-6 compared with natural leucotrienes. The text has this:
Thus, in various test arrangements in vitro they have a clear leucotriene-antagonistic action.
As already mentioned above, there is a general analogy between the structure of the compounds of the formula I according to the invention and that of leucotrienes, especially in the obligatory trans-configuration of the vicinal S- and O-atoms mentioned at the beginning and the total structure of the mercaptoalkanoic acid residue (A) (especially in its typical form of a cysteine peptide). They differ from leucotrienes essentially in lacking the characteristic terminal carboxy group in the olefinic radical (B).

For assay [1], the target named is phospholipase A2 from human leucocytes. Nature of the assay: inhibition of phospholipase A2 obtained from human leucocytes. The format is biochemical. Conditions: human leucocyte enzyme, 37° 1 hour, pH 7, 14C-oleic acid labelled E. coli phospholipides.
Experimental: Human neutrophilic polymorphonuclear leucocytes are isolated from "buffy coats" by multistage fractional sedimentation and deep-frozen. Phospholipase A2 is extracted from the cell suspension by homogenisation with the addition of icecold 0.36N H2 SO4 in 2N NaCl, and the supernatant obtained after centrifugation at 10,000× g is dialysed against sodium acetate buffer pH 4.5.
In order to determine the enzyme activity, enzyme (10-30 μg protein) is incubated at 37° for 1 hour in 0.1M tris/HCl buffer pH 7 with the addition of 1 mM CaCl2 and substrate consisting of phospholipides (2 μm) of Escherichia coli that have been radioactively labelled with ^14 C-oleic acid by means of biosynthesis. The reaction is stopped by the addition of Dole reagent (isopropanol/heptane/1N H2 SO4 40:10:1, v/v) and the ^14 C-oleic acid selectively released by phospholipase A2 is extracted. Substrate also extracted at the same time is completely removed by filtering the extract through a column of silica gel. The ^14 C-oleic acid in the eluate is determined by radiometry.
In order to ascertain the inhibitory action of test substances on phospholipase A2, these substances are added in the form of solutions in water, dimethyl sulphoxide (final concentration in the mixture up to 5% v/v) or ethanol (final concentration in the mixture up to 2.5% v/v) to the incubation mixture. […]
In assay [2] the target is phospholipase C from human thrombocytes. Nature of the assay: inhibition of phospholipase C obtained from human thrombocytes. The format is biochemical. The note with it: human thrombocyte enzyme, 37° 5 minutes, pH 6, phosphatidyl-[14C]-inositol.
Experimental: To ascertain the enzyme activity, enzyme (20-100 μg protein) is incubated at 37° for 5 minutes in 0.025M tris/malate buffer pH 6 with the addition of 0.2 mM CaCl2 and 0.02 mM radioactively labelled substrate, phosphatidyl-[^14 C]-inositol. The reaction is stopped by extraction by shaking with CHCl3 /CH3 OH 2:1 (v/v). In the course of this unconsumed substrate is extracted into the organic phase, whilst the reaction product, ^14 C-inositol phosphate, remains in the aqueous phase and can be measured by radiometry of an aliquot.
In order to ascertain the inhibitory action of test substances on phospholipase C, these substances are added in the form of solutions in water, dimethyl sulphoxide (final concentration in the mixture up to 5%, v/v) or ethanol (final concentration in the mixture up to 2.5%, v/v) to the incubation mixture. The strength of action of the test substances is expressed by the IC50, that is to say the concentration that causes a 50% inhibition of the control activity. The IC50 is ascertained on a graph by plotting the percentage inhibition on the ordinate against the log of the concentration (μM) on the abscissa.

Take `CCCCCCCC\C=C/C=C/C=C/[C@H](SCC(NC(=O)C(F)(F)F)C(=O)NCC(=O)O)[C@H](O)CCCC` (stereo partly drawn) [Example 60A, Sodium salt of N-[S-5(R),6(S)-5-hydroxy-7,9-trans-11-cis-icosatrien-6-yl-N-trifluoroacetylcysteinyl]-glycine]: in the assay with leucotrienes, the “activity (leucotriene antagonism), in words” value is recorded as “highly active”.
On to `CCN(CC)CCCC(C)Nc1c2ccc(Cl)cc2nc2ccc(OC)cc12` (stereo not drawn) [mepacrine], for which the IC50 came out at 1600 µM in assay [1] and 20 µM in assay [2].

By IC50 is commonly meant the concentration needed to halve the response being measured.
